According to US20220056052A1, “QUINAZOLINE DERIVATIVES AS ECTONUCLEOTIDE PYROPHOSPHATASE PHOSPHODIESTERASE 1 INHIBITORS” (Riboscience LLC, priority 2018, published 2022):
Where a name gives a salt, the structure may show the parent alone.

How the values were obtained:
[1] = target: T1, ENPP1 (Homo sapiens, UniProt P22413); assay: Measurement of pNP-TMP hydrolysis by ENPP1; assay type: biochemical; conditions: substrate pNP-TMP, (S) 500 μM, KM 232 μM; Ki from IC50 by Cheng-Prusoff
T1 sequence (P22413 1-925): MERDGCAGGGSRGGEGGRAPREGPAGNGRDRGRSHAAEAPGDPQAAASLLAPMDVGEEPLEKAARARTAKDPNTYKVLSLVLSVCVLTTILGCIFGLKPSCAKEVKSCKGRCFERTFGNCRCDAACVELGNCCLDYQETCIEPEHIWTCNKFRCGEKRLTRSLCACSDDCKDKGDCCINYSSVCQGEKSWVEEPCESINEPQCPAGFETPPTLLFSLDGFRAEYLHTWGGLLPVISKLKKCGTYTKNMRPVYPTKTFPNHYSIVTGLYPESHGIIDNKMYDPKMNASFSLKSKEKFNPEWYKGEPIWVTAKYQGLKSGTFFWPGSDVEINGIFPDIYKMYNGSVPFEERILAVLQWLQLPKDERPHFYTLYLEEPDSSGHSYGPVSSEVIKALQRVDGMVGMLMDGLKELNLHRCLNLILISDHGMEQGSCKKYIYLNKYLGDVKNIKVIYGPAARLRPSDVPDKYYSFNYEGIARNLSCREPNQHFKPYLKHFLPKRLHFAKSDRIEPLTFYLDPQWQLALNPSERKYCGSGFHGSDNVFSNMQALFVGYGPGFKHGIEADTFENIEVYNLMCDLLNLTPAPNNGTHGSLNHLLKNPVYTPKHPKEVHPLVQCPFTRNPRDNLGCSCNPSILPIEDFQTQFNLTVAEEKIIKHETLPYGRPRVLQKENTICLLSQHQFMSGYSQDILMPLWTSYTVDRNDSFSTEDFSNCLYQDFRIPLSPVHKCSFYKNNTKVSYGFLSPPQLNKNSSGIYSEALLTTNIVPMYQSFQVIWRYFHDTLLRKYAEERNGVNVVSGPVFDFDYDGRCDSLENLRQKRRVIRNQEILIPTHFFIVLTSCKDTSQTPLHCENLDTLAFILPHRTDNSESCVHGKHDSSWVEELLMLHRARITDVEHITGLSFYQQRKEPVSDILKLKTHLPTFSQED
Experimental: p-Nitrophenyl thymidine 5′-monophosphate (pNP-TMP) is a synthesized substrate for ENPP1. The ENPP1 enzyme activity assay with pNP-TMP substrate was conducted as follows:
Incubation of ENPP1 with compounds was set at 25° C. for 10 min.
Absorbance at 405 nm was recorded immediately in kinetic mode by PerkinElmer 2300 Enspire multimode plate reader.
For each inhibitor, the specific ENPP1 activity was calculated using the following equation: ENPP1 activity (pmol/min/μg)=Adjusted Vmax (OD405 nm/min)×conversion factor (pmol/OD405 nm)/amount of enzyme (μg)
Adjusted Vmax=V0×(Km+(S))/(S). […] V0=(OD405 nm with ENPP1−OD405 nm ENPP1 blank)/minutes. OD405 nm was plotted, with blank subtracted, against time (minutes), the initial linear rate is V0. […]
The slope is the conversion factor. The percent ENPP1 activity for each sample was calculated using the following equation:
% enzyme activity=sample enzyme activity/MAX Activity×100%.
To determine the IC50 for each compound, compound concentration values and percent enzyme activity values were inserted into GraphPad Prism (GraphPad Prism version 7.0 for Windows, GraphPad Software, La Jolla Calif. USA, www.graphpad.com), and Prism's Transform analysis was used to convert the x-axis values (compound concentration) to logarithms. A sigmoidal variable slope nonlinear regression analysis was performed using the following equation: Y=Bottom+(Top−Bottom)/(1+10^((Log IC50^−X)*HillSlope)).

[2] = target: T1, ENPP1; assay: Measurement of 2′3′-cGAMP hydrolysis by ENPP1 (AMP-Glo)
Experimental: Then, 15 μl of the ENPP1/Compound incubation was transferred to the 200 μM 2′3′-cGAMP solution to initiate the reaction. The 30 μl mixture was incubated for 30 min at 25° C. […] After 30 min the reaction was stopped by heating at 90° C. for 3 min.
Third, now the Promega AMP-Glo kit was used to detect 5′-AMP production as a measurement of ENPP1 enzyme activity. To do this, 10 μl of the above mentioned 30 μl total reaction per sample was transferred into 384 well white solid assay plate for measurement of 5′-AMP production. For each well, 10 μl of AMP-Glo Reagent I was added, mixed well, and incubated for 1 hour at 25° C. At this time AMP detection solution was prepared and 20 μl was added per well, and the resulting solution was incubated for 1 hr at 25° C. Duplicates were run for each inhibitor concentration. Luminescence signal (relative luminescence units, RLU) was recorded using a PerkinElmer 2300 Enspire multimode plate reader.
IC50 values of compounds were determined by loading compound concentration data and percent inhibition values into GraphPad Prism (GraphPad Prism version 7.0 for Windows, GraphPad Software, La Jolla Calif. USA, www.graphpad.com) and conducted a Sigmoidal variable slope nonlinear regression fitting.

[3] = system: HGS tumor model; assay: Anti-tumor activity in HGS tumor model; assay type: in vivo; conditions: animals treated with 20/kg of compound, day 42 after inoculation (vehicle 645)
Description: […]

Row | SMILES | Ki [1] | Ki [2] | tumor size [3]
1 | COc1ccc2c(NCc3ccc(B(O)O)cc3)ncnc2c1 [compound 30, 4-(((7-methoxyquinazolin-4-yl)amino)methyl)phenylboronic acid] | < 5 nM | – | –
2 | COc1cc2ncnc(Nc3ccc4c(c3)COB4O)c2cc1OC [compound 10, 5-((6,7-dimethoxyquinazolin-4-yl)amino)-1,3-dihydro-2,1-benzoxaborol-1-ol] | – | < 10 nM | –
3 | COc1cc2ncnc(OCc3ccc4c(c3)COB4O)c2cc1OC [compound 21, 5-(((6,7-dimethoxyquinazolin-4-yl)oxy)methyl)-3H-2,1-benzoxaborol-1-lol] | – | < 10 nM | –
4 | COc1cc2ncnc(NCc3ccc(B(O)O)cn3)c2cc1OC [compound 8, (6-(((6,7-dimethoxyquinazolin-4-yl)amino)methyl)pyridin-3-yl)boronic acid] | – | < 10 nM | –
5 | COc1cc2ncnc(N3CCC(CCCB(O)O)CC3)c2cc1OC [Cpd. 3, (3-(1-(6,7-dimethoxyquinazolin-4-yl)piperidin-4-yl)propyl)boronic acid] | – | < 1 nM | –
6 | COc1cc2ncnc(NCC3CCN(S(N)(=O)=O)CC3)c2cc1OC [compound 18, 4-(((6,7-dimethoxyquinazolin-4-yl)amino)methyl)piperidine-1-sulfonamide] | – | < 5 nM | –
7 | COc1cc2ncnc(NCc3ccc(P(=O)(O)O)cc3)c2cc1OC [compound 13, (4-(((6,7-dimethoxyquinazolin-4-yl)amino)methyl)phenyl)phosphonic acid] | – | < 5 nM | –
8 | COc1cc2ncnc(OCc3ccc4c(c3)B(O)OC4)c2cc1OC [compound 20, 6-(((6,7-dimethoxyquinazolin-4-yl)oxy)methyl)-3H-2,1-benzoxaborol-1-ol] | – | < 5 nM | –
9 | COc1cc2ncnc(-c3ccc(COS(N)(=O)=O)cc3)c2cc1OC [Cpd. 17, 4-(6,7-dimethoxyquinazolin-4-yl)benzyl sulfamate] | < 1 nM | – | –
10 | COc1cc2ncnc(NCc3c(F)cc(B(O)O)cc3F)c2cc1OC [compound 24, 4-(((6,7-dimethoxyquinazolin-4-yl)amino)methyl)-3,5-difluorophenylboronic acid hydrochloride] | < 10 nM | – | –
11 | COc1cc2ncnc(OCc3ccc(B(O)O)cc3)c2cc1OC [compound 19, (4-(((6,7-dimethoxyquinazolin-4-yl)oxy)methyl)phenyl)boronic acid] | < 5 nM | < 1 nM | –
12 | COc1cc2ncnc(NCc3ccc(B(O)O)cc3F)c2cc1OC [compound 11, 4-(((6,7-dimethoxyquinazolin-4-yl)amino)methyl)-3-fluorophenylboronic acid formic acid salt] | < 10 nM | – | –
13 | C=CC(=O)N1CCN(CCCn2c(=O)c(-c3c(Cl)c(OC)cc(OC)c3Cl)cc3cnc(NC)nc32)CC1 [8-(3-(4-acryloylpiperazin-1-yl)propyl)-6-(2,6-dichloro-3,5-dimethoxyphenyl)-2-(methylamino)pyrido(2,3-d)pyrimidin-7(8H)-one] | – | – | 55 mm3
14 | COc1ccc2c(NCc3ccc(P(=O)(O)O)cc3)ncnc2c1 [compound 41, 4-(((7-methoxyquinazolin-4-yl)amino)methyl)phenylphosphonic acid formic acid salt] | < 5 nM | – | –
15 | COc1cc2ncnc(N3CCC(CCCP(=O)(O)O)CC3)c2cc1OC [compound 6, (3-(1-(6,7-dimethoxyquinazolin-4-yl)piperidin-4-yl)propyl)phosphonic acid] | < 5 nM | < 1 nM | –
16 | COc1cc2ncnc(NCc3cccc(B(O)O)c3)c2cc1OC [compound 12, (3-(((6,7-dimethoxyquinazolin-4-yl)amino)methyl)phenyl)boronic acid] | < 10 nM | < 1 nM | –
17 | COc1cc2ncnc(NCc3ccc(B(O)O)cc3)c2cc1OC [Cpd. 7, (4-(((6,7-dimethoxyquinazolin-4-yl)amino)methyl)phenyl)boronic acid formic acid salt] | < 10 nM | < 1 nM | –
18 | COc1cc2ncnc(N3CCC(CP(=O)(O)O)CC3)c2cc1OC [Cpd. 4, ((1-(6,7-dimethoxyquinazolin-4-yl)piperidin-4-yl)methyl)phosphonic acid] | – | < 5 nM | –
